From patent publication US8349885B2, “Indole and indazole derivatives having a cell-, tissue- and organ-preserving effect” (LG Life Sciences Ltd., priority 2008, dated 2013)

Experiments:
[1] = system: rat-isolated perfusion liver; experiment: Protecting effect against cold ischemia/warm reperfusion injury in rat-isolated perfusion liver model; settings: 30 μM in HTK solution, 24-hour cold preservation at 4° C.
Method: In order to verify an organ preservation effect, rat-isolated perfusion liver model was used to evaluate a protecting effect of the compounds of the working examples against cold preservation injury. A white rat was anesthetized by intraperitoneal injection of sodium pentobarbital (50 mg/kg) and administered with heparin (500 U/kg) by intravenous injection to prevent blood coagulation. After incising the abdominal median line, in order to measure bile output, polyethylene tube-10 was inserted into the bile duct, and the coronary vein was tied. Polyethylene tube-190 was inserted into the hepatic portal vein, and a perfusate, Krebs-Henseleit bicarbonate buffer (KHBB) (at pH 7.4 at 37° C.) was perfused at a rate of 4 mL/min/g. […] During the perfusion, a mixed gas (O2 95% and CO2 5%) was continuously injected to KHBB to supply oxygen. […]
In order to observe a protecting effect against ischemia and reperfusion injury, bile output and perfusate's LDH activity were measured. KHBB perfusate released from liver at 5, 10, 20, 30, 40, 50, 60, 70 and 80 minutes after reperfusion was collected, and LDH activity in the perfusate was measured using a biochemical automatic analyzer, Hitachi 7150 (FIG. 4). Bile secreted through the polyethylene tube which had been inserted into the bile duct at 0˜20, 20˜40, 40˜60 and 60˜80 minutes after reperfusion was collected, and bile output was measured (FIG. 5).

[2] = system: human embryonic lung cell line (LB-HEL); experiment: Cell-protecting effect against cold shock in LB-HEL cells (WST-1); assay type: cell-based; settings: cold shock at 4° C. for 24 hours, then 37° C., cell viability by WST-1
Method: The same results as above were also obtained in other types of cells such as human embryonic lung cell line (LB-HEL) as well as hepatocytes (see FIG. 2 and Table 2). More specifically, LB-HEL cells were plated at 1.5×10^6 cells/well using DMEM medium (Gibco BRL) and treated with DMSO, nec-1, IM-54 or the compounds of Examples 126, 127, 137 and 138 at indicated concentrations. After storage at 4° C. for 24 hours, the mixture was transferred into an incubator at 37° C. and cultured therein. In order to verify recovery capacity at 37° C., cell viability after 24 hours post-transfer was measured by the optical density at 440 nm according to the WST-1 method (MK-400, Takeda) and compared with cell viability prior to cold shock (FIG. 2).

[3] = system: primary cultured hepatocytes; experiment: Cell-protecting effect against cold shock in primary cultured hepatocytes (WST-1); assay type: cell-based; settings: Rattus norvegicus, Hepatocyte, 37° C. for 1 hour, 4° C. for 22 hours, then 37° C., cell viability by WST-1
Method: In order to reproduce a condition for preservation prior to organ transplantation, primary cultured hepatocytes were prepared according to Experimental Example 1 and treated with the compounds of the working examples at 9 different concentrations that had been prepared by 3-fold serial dilution method using a starting concentration of 25 μM. The mixture was cultured at 37° C. for 1 hour, stored at 4° C. for 22 hours, and then transferred into an incubator at 37° C. and cultured therein. Cell viability was measured by the optical density at 440 nm according to the WST-1 method (MK-400, Takeda), and IC50 (unit: μM) was obtained using prism software (see Table 1).

O=S1(=O)CCN(Cc2cc(NC3CCOCC3)c3[nH]c(-c4ccccc4)cc3c2)CC1 [Example 126, [5-(1,1-dioxo-thiomorpolin-4-ylmethyl)-2-phenyl-1H-indol-7-yl]-(tetrahydropyran-4-yl)-amine]
total amount of bile output ([1]; 80 minutes of reperfusion): 0.070±0.006 ml/g liver | inhibition at 30 µM ([1]; Rattus norvegicus, until 50 minutes of reperfusion, read-out: inhibition of LDH activity in the perfusate, compared with the HTK group): 50 to 70% | IC50 [2]: < 100 nM | IC50 [3]: 248 nM
